The source of these data is patent publication EP4477653A1 (Perha Pharmaceuticals, priority 2023, dated 2024).

The target of the assay is T1, human recombinant A3AR (expressed in HEK-293 cells) (Homo sapiens, UniProt P0DMS8).
T1 construct: host or cells: HEK-293 cells
T1 sequence (P0DMS8 1-318): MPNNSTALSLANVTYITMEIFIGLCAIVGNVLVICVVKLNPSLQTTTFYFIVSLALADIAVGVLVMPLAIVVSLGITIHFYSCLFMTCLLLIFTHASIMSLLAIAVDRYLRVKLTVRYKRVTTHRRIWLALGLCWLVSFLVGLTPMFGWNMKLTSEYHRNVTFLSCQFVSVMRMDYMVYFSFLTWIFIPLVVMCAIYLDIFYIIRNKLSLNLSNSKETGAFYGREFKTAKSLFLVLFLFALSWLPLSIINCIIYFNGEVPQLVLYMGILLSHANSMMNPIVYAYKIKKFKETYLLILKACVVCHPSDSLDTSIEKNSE
Nature of the assay: Adenosine receptors antagonism assay (Eurofins), [125I]-AB-MECA radioligand competition. It is filed as binding. The settings on record: [125I]-AB-MECA 0.15 nM, r.t., 120 min; IC50 from dose-response curves; read-out: Potency Class A3AR. (In general: Loss of bound radioactivity is the signal in a displacement assay; it reports binding, not function.)
On to `CCOC(=O)CCNc1cc(NCc2ccccc2)c2nnc(C(C)C)n2n1` [compound 29, ethyl 3-[[8-(benzylamino)-3-isopropyl-[1,2,4]triazolo[4,3-b]pyridazin-6-yl]amino]propanoate], for which the IC50 was 0.01 to 0.1 µM.

As to `CCCc1nnc2c(NCc3ccccn3)cc(NC(CC)CC)nn12` [compound 60, N6-(1-ethylpropyl)-3-propyl-N8-(2-pyridylmethyl)-[1,2,4]triazolo[4,3-b]pyridazine-6,8-diamine], the IC50 fell in the range of 0.01 to 0.1 µM. For `CC(C)c1nnc2c(NCc3ccc(-c4ccccn4)cc3)cc(N[C@H](CO)[C@@H](C)O)nn12` [compound 107, (2R,3R)-2-[[3-isopropyl-8-[[4-(2-pyridyl)phenyl]methylamino]-[1,2,4]triazolo[4,3-b]pyridazin-6-yl]amino]butane-1,3-diol] the value was 0.01 to 0.1 µM; for `c1ccc(CNc2cc(NC3CCC3)nn3c(C4CC4)nnc23)nc1` [compound 198, N6-cyclobutyl-3-cyclopropyl-N8-(pyridin-2-ylmethyl)-[1,2,4]triazolo[4,3-b]pyridazine-6,8-diamine], 0.001 to 0.01 µM. `CCC(C)Nc1cc(NCc2ccccn2)c2nnc(C3CC3)n2n1` (racemic) [compound 193, N6-(sec-butyl)-3-cyclopropyl-N8-(pyridin-2-ylmethyl)-[1,2,4]triazolo[4,3-b]pyridazine-6,8-diamine]: the IC50 is 0.001 to 0.01 µM. For `CCC(CC)Nc1cc(Nc2cncc(OC)c2)c2nnc(C(C)C)n2n1` [compound 160, 3-isopropyl-N8-(5-methoxypyridin-3-yl)-N6-(pentan-3-yl)-[1,2,4]triazolo[4,3-b]pyridazine-6,8-diamine] the value was 0.001 to 0.01 µM; for `CC[C@H](CO)Nc1cc(Nc2ccccn2)c2nnc(C(C)C)n2n1` [compound 163, (2R)-2-[[3-isopropyl-8-(2-pyridylamino)-[1,2,4]triazolo[4,3-b]pyridazin-6-yl]amino]butan-1-ol], 0.01 to 0.1 µM; for `CCC(CC)CNc1cc(Nc2cccnn2)c2nnc(C(C)C)n2n1` [compound 147, N6-(2-ethylbutyl)-3-isopropyl-N8-(pyridazin-3-yl)-[1,2,4]triazolo[4,3-b]pyridazine-6,8-diamine], less than 0.001 µM. Take `COCCCNc1cc(NCc2ccccc2O)c2nnc(C(C)C)n2n1` [compound 39, 2-[[[3-isopropyl-6-(3-methoxypropylamino)-[1,2,4]triazolo[4,3-b]pyridazin-8-yl]amino]methyl]phenol]: the IC50 lay in the range of 0.01 to 0.1 µM. With `c1ccc(CNc2cc(NC3CCCC3)nn3c(C4CC4)nnc23)nc1` [compound 199, N6-cyclopentyl-3-cyclopropyl-N8-(pyridin-2-ylmethyl)-[1,2,4]triazolo[4,3-b]pyridazine-6,8-diamine] the figure was 0.001 to 0.01 µM; with `CCC(CC)Nc1cc(Nc2cccc(OC)n2)c2nnc(C(C)C)n2n1` [compound 154, 3-isopropyl-N8-(6-methoxypyridin-2-yl)-N6-(pentan-3-yl)-[1,2,4]triazolo[4,3-b]pyridazine-6,8-diamine], less than 0.001 µM; with `CCC(CC)Nc1cc(NCc2ccc(O)cc2)c2nnc(C(C)C)n2n1` [compound 42, 4-[[[6-(1-ethylpropylamino)-3-isopropyl-[1,2,4]triazolo[4,3-b]pyridazin-8-yl]amino]methyl]phenol], 0.001 to 0.01 µM. Consider `CC(C)c1nnc2c(NCc3ccccn3)cc(NC3CCC(F)(F)CC3)nn12` [compound 55, N6-(4,4-difluorocyclohexyl)-3-isopropyl-N8-(2-pyridylmethyl)-[1,2,4]triazolo[4,3-b]pyridazine-6,8-diamine], for which the IC50 lay in the range of 0.01 to 0.1 µM. With `CCC(CC)Nc1cc(Nc2ccncc2)c2nnc(C(C)C)n2n1` [compound 48, N6-(1-ethylpropyl)-3-isopropyl-N8-(4-pyridyl)-[1,2,4]triazolo[4,3-b]pyridazine-6,8-diamine], the IC50 was in the range of 0.001 to 0.01 µM. On to `CC(C)c1nnc2c(NCc3ccc(Br)cc3)cc(N[C@H](CO)[C@@H](C)O)nn12` [compound 106, (2R,3R)-2-[[8-[(4-bromophenyl)methylamino]-3-isopropyl-[1,2,4]triazolo[4,3-b]pyridazin-6-yl]amino]butane-1,3-diol], for which the IC50 lay within 0.1 to 1 µM. Regarding `COc1ccc(CNc2cc(NCc3ccccn3)c3nnc(C4CC4)n3n2)cc1` [compound 187, 3-cyclopropyl-N6-(4-methoxybenzyl)-N8-(pyridin-2-ylmethyl)-[1,2,4]triazolo[4,3-b]pyridazine-6,8-diamine], the IC50 lay in the range of 0.001 to 0.01 µM.

As for `c1ccc(CNc2cc(N3CCCCC3)nn3c(C4CC4)nnc23)nc1` [compound 207, 3-cyclopropyl-6-(1-piperidyl)-N-(2-pyridylmethyl)-[1,2,4]triazolo[4,3-b]pyridazin-8-amine], the IC50 fell in the range of 0.1 to 1 µM. With `c1ccc(CNc2cc(NCC3CCC3)nn3c(C4CC4)nnc23)nc1` [compound 204, N6-(cyclobutylmethyl)-3-cyclopropyl-N8-(pyridin-2-ylmethyl)-[1,2,4]triazolo[4,3-b]pyridazine-6,8-diamine], the IC50 is 0.001 to 0.01 µM. Regarding `c1ccc(CNc2cc(N[C@@H]3CCCOC3)nn3c(C4CC4)nnc23)nc1` [compound 214, (R)-3-cyclopropyl-N8-(pyridin-2-ylmethyl)-N6-(tetrahydro-2H-pyran-3-yl)-[1,2,4]triazolo[4,3-b]pyridazine-6,8-diamine], the IC50 fell in the range of 0.1 to 1 µM.

Turning to `c1ccc(CNc2cc(N[C@@H]3CCOC3)nn3c(C4CC4)nnc23)nc1` [compound 213, (R)-3-cyclopropyl-N8-(pyridin-2-ylmethyl)-N6-(tetrahydrofuran-3-yl)-[1,2,4]triazolo[4,3-b]pyridazine-6,8-diamine], the IC50 was 0.1 to 1 µM. Regarding `CCC(CC)Nc1cc(NCc2ncccn2)c2nnc(C(C)C)n2n1` [compound 92, N6-(1-ethylpropyl)-3-isopropyl-N8-(pyrimidin-2-ylmethyl)-[1,2,4]triazolo[4,3-b]pyridazine-6,8-diamine], the IC50 fell in the range of 0.01 to 0.1 µM. Consider `CCC(CC)Nc1cc(NCc2ccccc2OC)c2nnc(C(C)C)n2n1` [compound 73, N6-(1-ethylpropyl)-3-isopropyl-N8-[(2-methoxyphenyl)methyl]-[1,2,4]triazolo[4,3-b]pyridazine-6,8-diamine], for which the IC50 is 0.001 to 0.01 µM.

Take `CCC(CC)Nc1cc(NCc2ccccn2)c2nnc(-c3ccccn3)n2n1` [compound 70, N6-(1-ethylpropyl)-3-(2-pyridyl)-N8-(2-pyridylmethyl)-[1,2,4]triazolo[4,3-b]pyridazine-6,8-diamine]: the IC50 was in the range of 0.1 to 1 µM. With `CCC(CC)Nc1cc(NCc2ccccc2N)c2nnc(C(C)C)n2n1` [compound 77, N8-[(2-aminophenyl)methyl]-N6-(1-ethylpropyl)-3-isopropyl-[1,2,4]triazolo[4,3-b]pyridazine-6,8-diamine] the figure was 0.01 to 0.1 µM; with `CCC(CC)Nc1cc(NCc2ccccn2)c2nnc(C3CCCCC3)n2n1` [compound 65, 3-cyclohexyl-N6-(1-ethylpropyl)-N8-(2-pyridylmethyl)-[1,2,4]triazolo[4,3-b]pyridazine-6,8-diamine], 0.1 to 1 µM. Take `CCC(CC)Nc1cc(Nc2ccccn2)c2nnc(C3CC3)n2n1` [compound 172, 3-cyclopropyl-N6-(1-ethylpropyl)-N8-(2-pyridyl)-[1,2,4]triazolo[4,3-b]pyridazine-6,8-diamine]: the IC50 is less than 0.001 µM. In the case of `CCC(CC)Nc1cc(Nc2cccnc2)c2nnc(C(C)C)n2n1` [compound 47, N6-(1-ethylpropyl)-3-isopropyl-N8-(3-pyridyl)-[1,2,4]triazolo[4,3-b]pyridazine-6,8-diamine], the IC50 was less than 0.001 µM.

On to `c1ccc(CNc2cc(NCc3ccsc3)nn3c(C4CC4)nnc23)nc1` [compound 218, 3-cyclopropyl-N8-(pyridin-2-ylmethyl)-N6-(thiophen-3-ylmethyl)-[1,2,4]triazolo[4,3-b]pyridazine-6,8-diamine], for which the IC50 is 0.001 to 0.01 µM.

In the case of `CC[C@H](CO)Nc1cc(NCc2ccccc2)c2nnc(C3CC3)n2n1` [compound 30, (2R)-2-[[8-(benzylamino)-3-cyclopropyl-[1,2,4]triazolo[4,3-b]pyridazin-6-yl]amino]butan-1-ol], the IC50 was 0.1 to 1 µM. With `CCC(CC)Nc1cc(NCc2ccccn2)c2nnc(-c3ccncc3)n2n1` [compound 72, N6-(1-ethylpropyl)-3-(4-pyridyl)-N8-(2-pyridylmethyl)-[1,2,4]triazolo[4,3-b]pyridazine-6,8-diamine] the figure was 0.01 to 0.1 µM; with `CC[C@H](CO)Nc1cc(NCc2ccccc2)c2nnc(-c3ccccc3)n2n1` [compound 35, (2R)-2-[[8-(benzylamino)-3-phenyl-[1,2,4]triazolo[4,3-b]pyridazin-6-yl]amino]butan-1-ol], 0.01 to 0.1 µM; with `CCC(CC)Nc1cc(NCc2ccccc2O)c2nnc(C(C)C)n2n1` [compound 40, 2-[[[6-(1-ethylpropylamino)-3-isopropyl-[1,2,4]triazolo[4,3-b]pyridazin-8-yl]amino]methyl]phenol], 0.001 to 0.01 µM. As for `CCC(CC)Nc1cc(Nc2ccc(OC)nn2)c2nnc(C3CC3)n2n1` [compound 215, 3-cyclopropyl-N8-(6-methoxypyridazin-3-yl)-N6-(pentan-3-yl)-[1,2,4]triazolo[4,3-b]pyridazine-6,8-diamine], the IC50 was less than 0.001 µM. As to `CCC(CC)Nc1cc(Nc2cccnc2)c2nnc(C3CC3)n2n1` [compound 173, 3-cyclopropyl-N6-(1-ethylpropyl)-N8-(3-pyridyl)-[1,2,4]triazolo[4,3-b]pyridazine-6,8-diamine], the IC50 was less than 0.001 µM.

Turning to `CC(C)c1nnc2c(NCc3ccccc3)cc(N3CCOCC3)nn12` [compound 6, N-benzyl-3-isopropyl-6-morpholino-[1,2,4]triazolo[4,3-b]pyridazin-8-amine], the IC50 was in the range of 0.1 to 1 µM.
